From patent publication US9388162B2, “Substituted morphinans and the use thereof” (Purdue Pharma L.P., priority 2012, dated 2016)

Assays:
[1] = molecular target: μ-opioid receptors (Homo sapiens (Human), UniProt P35372); experiment: μ-opioid receptor [35S]GTPγS functional assay, U-2 OS cells; type: biochemical; settings: μ GTP; for EC50: read-out: Activity Response μ EC50 (nM) [mean ± SEM]; for Emax: read-out: Activity Response μ Emax (%)
Method: [^35S]GTPγS functional assays were conducted using freshly thawed μ-receptor membranes prepared from a cell line expressing recombinant μ opioid receptor in a HEK-293, CHO or U-2 OS cell background or purchased from a commercial source (Perkin Elmer, Shelton, Conn.; or DiscovRx, Fremont, Calif.). Assay reactions were prepared by sequentially adding the following reagents to binding buffer (100 mM NaCl, 10 mM MgCl2, 20 mM HEPES, pH 7.4) on ice (final concentrations indicated): membrane protein (0.026 mg/mL), saponin ([…]), GDP ([…]) and [^35S]GTPγS (0.20 nM; Perkin Elmer, Shelton, Conn.). The prepared membrane solution (190 μl/well) was transferred to 96-shallow well polypropylene plates containing 10 μl of 20× concentrated stock solutions of the agonist [D-Ala^2, N-methyl-Phe^4 Gly-ol^5]-enkephalin (DAMGO) prepared in dimethyl sulfoxide (DMSO). Plates were incubated for 30 min at about 25° C. with shaking. Reactions were terminated by rapid filtration onto 96-well Unifilter GF/B filter plates (Perkin Elmer, Shelton, Conn.) using a 96-well tissue harvester (Perkin Elmer, Shelton, Conn.) followed by three filtration washes with 200 μl of ice-cold wash buffer (10 mM NaH2PO4, 10 mM Na2HPO4, pH 7.4). Filter plates were subsequently dried at 50° C. for 2-3 hours. BetaScint scintillation cocktail (Perkin Elmer, Shelton, Conn.) was added (50 μl/well) and plates were counted using a Packard Top-Count for 1 min/well. Data were analyzed using the sigmoidal dose-response curve fitting functions in GraphPad PRISM v. 3.0, or an in-house function for non-linear, sigmoidal dose-response curve-fitting.
μ GTP EC50 is the concentration of a compound providing 50% of the maximal response for the compound at a μ-opioid receptor.
μ GTP Emax (%) is the maximal effect elicited by a compound relative to the effect elicited by DAMGO, a standard μ agonist. Generally, the μ GTP Emax (%) value measures the efficacy of a compound to treat or prevent pain or other Conditions.
(§1) The following tables provide results on the efficacy of binding and activity response of exemplified Compounds of the Invention at the μ- and κ-opioid receptors. In TABLE 3, binding affinity of certain Compounds of the Invention to the μ- and κ-opioid receptors was determined as described above. In TABLE 4, activity response of certain Compounds of the Invention to the μ- and κ-opioid receptors was determined as described above for functional assays using HEK-293 cells. In TABLE 5, activity response of certain Compounds of the Invention to the μ- and κ-opioid receptors was determined as described above using U-2 OS cells.

[2] = molecular target: κ opioid receptor (Homo sapiens (Human), UniProt P41145); experiment: κ-opioid receptor [35S]GTPγS functional assay, U-2 OS cells; type: biochemical; settings: κ GTP; for EC50: read-out: Activity Response κ EC50 (nM) [mean ± SEM]; for Emax: relative to U69,593, read-out: Activity Response κ Emax (%)
Method: Membranes from HEK-293 cells, CHO or U-2 OS cells expressing the recombinant human kappa opioid receptor (κ) were prepared by lysing cells in ice cold hypotonic buffer (2.5 mM MgCl2, 50 mM HEPES, pH 7.4) (10 mL/10 cm dish) followed by homogenization with a tissue grinder/Teflon pestle. Membranes were collected by centrifugation at 30,000×g for 15 min at 4° C. and pellets were resuspended in hypotonic buffer to a final concentration of 1-3 mg/mL. Protein concentrations were determined using the BioRad protein assay reagent with bovine serum albumen as standard. Aliquots of κ receptor membranes were stored at −80° C.
Functional [^35S]GTPγS binding assays were conducted as follows. κ opioid receptor membrane solution was prepared by sequentially adding final concentrations of 0.026 μg/μl κ membrane protein (in-house), 10 μg/mL saponin, 3 μM GDP and 0.20 nM [^35S]GTPγS to binding buffer (100 mM NaCl, 10 mM MgCl2, 20 mM HEPES, pH 7.4) on ice. The prepared membrane solution (190 μl/well) was transferred to 96-shallow well polypropylene plates containing 10 μl of 20× concentrated stock solutions of agonist prepared in DMSO. Plates were incubated for 30 min at a temperature of about 25° C. with shaking. Reactions were terminated by rapid filtration onto 96-well Unifilter GF/B filter plates (Perkin Elmer, Shelton, Conn.) using a 96-well tissue harvester (Packard) and followed by three filtration washes with 200 μl ice-cold binding buffer (10 mM NaH2PO4, 10 mM Na2HPO4, pH 7.4). Filter plates were subsequently dried at 50° C. for 2-3 hours. Fifty μl/well scintillation cocktail (Perkin Elmer, Shelton, Conn.) was added and plates were counted in a Packard Top-Count for 1 min/well.
κ GTP EC50 is the concentration of a compound providing 50% of the maximal response for the compound at a κ receptor.
κ GTP Emax (%) is the maximal effect elicited by a compound relative to the effect elicited by U69,593.
as §1, with “In” for “The following tables provide results on the efficacy of binding and activity response of exemplified Compounds of the Invention at the μ- and κ-opioid receptors. In”

SMILES: O=C(N[C@H]1C[C@@]2(O)[C@H]3Cc4ccc(O)cc4[C@@]2(CCN3CC2CC2)CC1=O)C1CC1 [Compound 34, N-((4bR,7S,8aS,9R)-11-(cyclopropylmethyl)-3,8a-dihydroxy-6-oxo-6,7,8,8a,9,10-hexahydro-5H-9,4b-(epiminoethano)phenanthren-7-yl)cyclopropanecarboxamide]
- EC50 [1]: > 200000 nM
- Emax ([1]; relative to DAMGO): 6.33 ± 2.19%
- EC50 [2]: 12.6 ± 2.04 nM
- Emax [2]: 101 ± 3.33%

SMILES: O=C1C[C@]23CCN(CC4CC4)[C@H](Cc4ccc(O)cc42)[C@]3(O)C[C@@H]1CC1CCCC1 [Compound 65, (4bR,7S,8aS,9R)-7-(cyclopentylmethyl)-11-(cyclopropylmethyl)-3,8a-dihydroxy-8,8a,9,10-tetrahydro-5H-9,4b-(epiminoethano)phenanthren-6(7H)-one]
- EC50 [1]: > 200000 nM
- Emax ([1]; relative to DAMGO): 4%
- EC50 [2]: 2.57 ± 0.24 nM
- Emax [2]: 101 ± 5.51%

SMILES: O=C1C[C@]23CCN(CC4CC4)[C@H](Cc4ccc(O)cc42)[C@]3(O)C[C@@H]1Cc1ccccc1 [Compound 71, (4bR,7S,8aS,9R)-7-benzyl-11-(cyclopropylmethyl)-3,8a-dihydroxy-8,8a,9,10-tetrahydro-5H-9,4b-(epiminoethano)phenanthren-6(7H)-one]
- EC50 [1]: 6.76 ± 1.73 nM
- Emax ([1]; relative to DAMGO): 17.7 ± 0.88%
- EC50 [2]: 5.6 ± 0.72 nM
- Emax [2]: 109 ± 5.45%

SMILES: COc1ccc2c(c1)[C@]13CCN(CC4CC4)[C@H](C2)[C@]1(O)C[C@H](OCC(C)C)C(=O)C3 [Compound 23, (4bR,7S,8aS,9R)-11-(cyclopropylmethyl)-8a-hydroxy-7-isobutoxy-3-methoxy-8,8a,9,10-tetrahydro-5H-9,4b-(epiminoethano)phenanthren-6(7H)-one]
- EC50 [1]: 2100 ± 735 nM
- Activity Response μ Emax (%) ([1]; relative to DAMGO): 15.7 ± 3.71%
- EC50 [2]: 5560 ± 481 nM
- Activity Response κ Emax (%) ([2]; relative to U69,593): 90.0 ± 1.00%

SMILES: CC(C)(C)C(=O)N[C@H]1C[C@@]2(O)[C@H]3Cc4ccc(O)cc4[C@@]2(CCN3CC2CC2)CC1=O [Compound 32, N-((4bR,7S,8aS,9R)-11-(cyclopropylmethyl)-3,8a-dihydroxy-6-oxo-6,7,8,8a,9,10-hexahydro-5H-9,4b-(epiminoethano)phenanthren-7-yl)pivalamide]
- EC50 [1]: 18.6 ± 8.05 nM
- Emax ([1]; relative to DAMGO): 11.3 ± 0.88%
- EC50 [2]: 17.5 ± 2.66 nM
- Emax [2]: 113 ± 3.61%

SMILES: CCC(=O)N[C@H]1C[C@@]2(O)[C@H]3Cc4ccc(O)cc4[C@@]2(CCN3CC2CC2)CC1=O [Compound 29, N-((4bR,7S,8aS,9R)-11-(cyclopropylmethyl)-3,8a-dihydroxy-6-oxo-6,7,8,8a,9,10-hexahydro-5H-9,4b-(epiminoethano)phenanthren-7-yl)propionamide]
- EC50 [1]: > 200000 nM
- Emax ([1]; relative to DAMGO): 7.25 ± 1.89%
- EC50 [2]: 14.6 ± 1.86 nM
- Emax [2]: 98.7 ± 5.21%

SMILES: CN1CC[C@]23CC(=O)[C@@H](CC(=O)N4CCC(O)CC4)C[C@@]2(O)[C@H]1Cc1ccc(O)cc13 [Compound 81, (4bR,7R,8aS,9R)-3,8a-dihydroxy-7-(2-(4-hydroxypiperidin-1-yl)-2-oxoethyl)-11-methyl-8,8a,9,10-tetrahydro-5H-9,4b-(epiminoethano)phenanthren-6(7H)-one]
- EC50 [1]: 1000 ± 276 nM
- Emax ([1]; relative to DAMGO): 84.3 ± 3.84%
- EC50 [2]: 6510 ± 1190 nM
- Emax [2]: 34 ± 2.65%

SMILES: CC(C)CCCC(=O)N[C@H]1C[C@@]2(O)[C@H]3Cc4ccc(O)cc4[C@@]2(CCN3CC2CC2)CC1=O [Compound 31, N-((4bR,7S,8aS,9R)-11-(cyclopropylmethyl)-3,8a-dihydroxy-6-oxo-6,7,8,8a,9,10-hexahydro-5H-9,4b-(epiminoethano)phenanthren-7-yl)-5-methylhexanamide]
- EC50 [1]: 9.65 ± 0.22 nM
- Emax ([1]; relative to DAMGO): 73.7 ± 2.6%
- EC50 [2]: 2.59 ± 0.14 nM
- Emax [2]: 90.7 ± 6.57%

SMILES: O=C1C[C@]23CCN(CC4CC4)[C@H](Cc4ccc(OCc5ccccc5)cc42)[C@]3(O)C[C@@H]1CCO [Compound 58, (4bR,7S,8aS,9R)-3-(benzyloxy)-11-(cyclopropylmethyl)-8a-hydroxy-7-(2-hydroxyethyl)-8,8a,9,10-tetrahydro-5H-9,4b-(epiminoethano)phenanthren-6(7H)-one]
- EC50 [1]: 787 ± 242 nM
- Emax ([1]; relative to DAMGO): 43.7 ± 3.93%
- EC50 [2]: 839 ± 9.9 nM
- Emax [2]: 96 ± 6.35%

SMILES: O=C1C[C@]23CCN(CC4CC4)[C@H](Cc4ccc(O)cc42)[C@]3(O)C[C@@H]1CC1CCCCC1 [Compound 70, (4bR,7S,8aS,9R)-7-(cyclohexylmethyl)-11-(cyclopropylmethyl)-3,8a-dihydroxy-8,8a,9,10-tetrahydro-5H-9,4b-(epiminoethano)phenanthren-6(7H)-one]
- EC50 [1]: > 200000 nM
- Emax ([1]; relative to DAMGO): 3.5%
- EC50 [2]: 4.01 ± 0.47 nM
- Emax [2]: 106 ± 3.8%

SMILES: COc1ccc2c(c1)[C@]13CCN(CC4CC4)[C@H](C2)[C@]1(O)C[C@H](NC(=O)C(C)C)C(=O)C3 [Compound 26, N-((4bR,7S,8aS,9R)-11-(cyclopropylmethyl)-8a-hydroxy-3-methoxy-6-oxo-6,7,8,8a,9,10-hexahydro-5H-9,4b-(epiminoethano)phenanthren-7-yl)isobutyramide]
- EC50 [1]: 7110 ± 633 nM
- Emax ([1]; relative to DAMGO): 31 ± 2.08%
- EC50 [2]: 7210 ± 438 nM
- Emax [2]: 104 ± 2.52%

SMILES: CC(C)CC(=O)N[C@H]1C[C@@]2(O)[C@H]3Cc4ccc(O)cc4[C@@]2(CCN3CC2CC2)CC1=O [Compound 33, N-((4bR,7S,8aS,9R)-11-(cyclopropylmethyl)-3,8a-dihydroxy-6-oxo-6,7,8,8a,9,10-hexahydro-5H-9,4b-(epiminoethano)phenanthren-7-yl)-3-methylbutanamide]
- EC50 [1]: > 200000 nM
- Emax ([1]; relative to DAMGO): 2.5%
- EC50 [2]: 36.1 ± 3.14 nM
- Emax [2]: 52 ± 4.93%

SMILES: CCOC(=O)C[C@H]1C[C@@]2(O)[C@H]3Cc4ccc(OC)cc4[C@@]2(CCN3C)CC1=O [Compound 59, ethyl 2-((4bR,7R,8aS,9R)-8a-hydroxy-3-methoxy-11-methyl-6-oxo-6,7,8,8a,9,10-hexahydro-5H-9,4b-(epiminoethano)phenanthren-7-yl)acetate]
- EC50 [1]: 11500 ± 903 nM
- Emax ([1]; relative to DAMGO): 100 ± 4.62%
- EC50 [2]: > 200000 nM
- Emax [2]: 59 ± 1.53%

SMILES: O=C(N[C@H]1C[C@@]2(O)[C@H]3Cc4ccc(O)cc4[C@@]2(CCN3CC2CC2)CC1=O)c1ccccc1 [Compound 36, N-((4bR,7S,8aS,9R)-11-(cyclopropylmethyl)-3,8a-dihydroxy-6-oxo-6,7,8,8a,9,10-hexahydro-5H-9,4b-(epiminoethano)phenanthren-7-yl)benzamide]
- EC50 [1]: 12.7 ± 2.92 nM
- Emax ([1]; relative to DAMGO): 20.3 ± 0.33%
- EC50 [2]: 4.28 ± 0.6 nM
- Emax [2]: 99 ± 4.73%
